Results reported in patent US11382892B2, “Method for administration” (Hoffmann-La Roche Inc., priority 2012, dated 2022).
Several values for one entry are separate records, joined by “and”; a condition that tells them apart may be missing. Identical values can stand only once.

Key:
[1] = Toxicity summary (body weight, mortality) in MOLM-13 xenograft study; type: in vivo; conditions: MOLM-13 study
Source text: In the examples below, weight loss was graphically represented as percent change in mean group body weight, using the formula: ((W−W0)/W0)×100, where ‘W’ represents mean body weight of the treated group at a particular day, and ‘W0’ represents mean body weight of the same treated group at initiation of treatment.
Female SCID:beige mice (10/group), obtained from Charles River Laboratories (Wilmington, Del.) were utilized when they were approximately 8-10 weeks of age and weighed 21-23 g. The health of the mice was assessed daily by gross observation and analyses of blood samples taken from sentinel animals housed on shared shelf racks. All animals were allowed to acclimate and recover from any shipping-related stress for a minimum of 72 hours prior to experimental use. Autoclaved water and irradiated food (5058-ms Pico Lab mouse chow, Purina Mills, Richmond, Ind.) were provided ad libitum, and the animals were maintained on a 12 hour light and dark cycle. Cages, bedding and water bottles were autoclaved before use and changed weekly. All animal experiments were conducted in accordance with the Guide for the Care and Use of Laboratory Animals, local regulations, and protocols approved by the Roche Animal Care and Use Committee in an AAALAC accredited facility.
Treatment duration was initiated on day 3 and was for 2 weeks. Animal body weights were measured three times per week and animals were monitored for clinical signs daily.

Ki-67 protein = experiment: Ki-67 IHC assay in patient tumor biopsies; type: in vivo, human; conditions: for Ki-67 IHC Average % CBL: cohort average; for Ki-67 IHC Median % CBL: cohort median; for Ki-67 IHC % CBL: individual patients, tumor biopsy vs baseline
Protocol: (§1) The 10 mg tablets contain hypromellose acetate succinate, mannitol, microcrystalline cellulose, croscarmellose sodium, colloidal silicon dioxide, and magnesium stearate. The film-coat consists of hypromellose, titanium dioxide, talc, triacetin, iron oxide yellow, and iron oxide red. The 50 mg, 200 mg, and 400 mg film coated tablets contain the excipients hypromellose acetate succinate, croscarmellose sodium, colloidal silicon dioxide, and magnesium stearate. The film-coat consists of polyvinyl alcohol, titanium dioxide, polyethylene glycol, talc, iron oxide yellow, iron oxide red, and iron oxide black.
Tumor biopsies were collected at baseline and cycle 1, day 5±2.
The Ki-67 protein is a cellular marker for proliferation. It is strictly associated with cell proliferation and can be measured in tissue sections via immunohistochemistry to determine degree of proliferation. Ki-67 protein is present during all active phases of the cell cycle (G1, S, G2, and mitosis), but is absent from resting cells (00).

tumor proliferation = experiment: FLT PET imaging of tumor proliferation in patients; type: in vivo, human; conditions: for FLT PET Average % CBL: cohort average; for FLT PET Median % CBL: cohort median; for FLT PET % CBL Cycle 1: individual patients
Protocol: as §1, with “black. […]” for “black.”
A negative percent change from baseline is indicative of an antiproliferative effect.

solid tumors = experiment: On-going Phase I studies in solid tumors; type: in vivo, human
Source text: Thus, a 3-5 daily treatment schedule is expected to provide the best benefit ratio taking into consideration efficacy and toxicity.

## COc1cc(C(=O)O)ccc1NC(=O)[C@@H]1N[C@@H](CC(C)(C)C)[C@](C#N)(c2ccc(Cl)cc2F)[C@H]1c1cccc(Cl)c1F [Compound A, 4-{[(2R,3S,4R,5S)-4-(4-Chloro-2-fluoro-phenyl)-3-(3-chloro-2-fluoro-phenyl)-4-cyano-5-(2,2-dimethyl-propyl)-pyrrolidine-2-carbonyl]-amino}-3-methoxy-benzoic acid]
[1]; 80 mg/kg qd × 5 po
  treatment related toxicity: absence of treatment related toxicity
[1]; 80 mg/kg qdx5 po
  # of animals ≥20% BWL: 0
  % Change in Body Weight at end of Study Day 17: −3.2%
  Maximum % Weight gain: −3.2%
  Maximum % Weight loss: −5.5%
[1]; 80 mg/kg qdx5 po, reason: dosing injury
  Mortality (reason): 1 (dosing
Ki-67 protein; BM-A1 800 mg bid Qwk × 3
  Ki-67 IHC Average % CBL: −8.5%
  Ki-67 IHC Median % CBL: −8.5%
  Ki-67 IHC % CBL: 14% and −31%
Ki-67 protein; BM-A2 1200 mg bid Qwk × 3
  Ki-67 IHC Average % CBL: −27.8%
  Ki-67 IHC Median % CBL: −33.0%
  Ki-67 IHC % CBL: −57% and 30% and −5% and −75% and −33%
Ki-67 protein; BM-B1 400 mg bid × 5 d
  Ki-67 IHC Average % CBL: −17.7%
  Ki-67 IHC Median % CBL: −13.0%
  Ki-67 IHC % CBL: −97% and −13% and 57%
Ki-67 protein; BM-B2 500 mg bid × 3 d
  Ki-67 IHC Average % CBL: −53.9%
  Ki-67 IHC Median % CBL: −69.8%
  Ki-67 IHC % CBL: 3% and −70% (2×) and −79%
Ki-67 protein; BM-B3 500 mg qd × 5 d
  Ki-67 IHC Average % CBL: −57.1%
  Ki-67 IHC Median % CBL: −66.5%
  Ki-67 IHC % CBL: −67% and −96% and −8%
Ki-67 protein; doses and schedules of Table 9
  tumor proliferation via Ki67: Decrease levels of tumor proliferation
Tumor proliferation; BM-A1 800 mg bid Qwk × 3
  FLT PET Average % CBL: −17.0%
  FLT PET Median % CBL: −20.5%
  FLT PET % CBL Cycle 1: −28.5% and −21.9% and −29.5% and 8.9% and −19.0% and −11.7%
Tumor proliferation; BM-A2 1200 mg bid Qwk × 3
  FLT PET Average % CBL: −0.9%
  FLT PET Median % CBL: 3.2%
  FLT PET % CBL Cycle 1: −5.0% and 21.1% and −31.1% and 11.3% and −73.1%
Tumor proliferation; BM-B1 400 mg bid × 5 d
  FLT PET Average % CBL: −43.4%
  FLT PET Median % CBL: −32.2%
  FLT PET % CBL Cycle 1: −82.5% and −29.3% and −23.4% and −32.2%
Tumor proliferation; BM-B2 500 mg bid × 3 d
  FLT PET Average % CBL: −39.2%
  FLT PET Median % CBL: −34.9%
  FLT PET % CBL Cycle 1: −34.9% and −62.4% and −24.7% and −19.4% and −54.5%
Tumor proliferation; BM-B3 500 mg qd × 5 d
  FLT PET Average % CBL: −29.04%
  FLT PET Median % CBL: −31.0%
  FLT PET % CBL Cycle 1: −56.4% and −34.3% and −21.7% and −31% and −1.8%
Tumor proliferation; all doses tested, in particular 3 day and 5 day schedules
  antiproliferative effect by FLT PET: antiproliferative effects was seen in all doses tested
Solid tumors; longer schedules
  toxicity of longer schedules: delayed thrombocytopenia
Solid tumors; solid tumors
  continuous exposure after which maximal apoptosis occurs: about 48 hours
